Our source for the CLint scaled values is patent publication US20230295152A1 (SENDA BIOSCIENCES, INC., priority 2019, published 2023).

A short description of the series: Hepatocyte Stability Assay, human. It counts as in vitro ADME. As to conditions: cryopreserved hepatocytes in suspension; human hepatocytes; read-out: Human hepatocyte clearance. The protocol: • Preparation of working solutions: 10 mM stock solutions of test compound and positive control were prepared in DMSO. In separate conical tubes, the 10 mM solution of test compound and the positive control were diluted to 100 μM by combining 198 μL of 50% acetonitrile/50% water and 2 μL of 10 mM stock.
Preparation of Hepatocytes: Incubation medium (William's E Medium supplemented with GlutaMAX) and hepatocyte thawing medium were placed in a 37° C. water bath and allowed warming for at least 15 minutes prior to use. A vial of cryopreserved hepatocytes was transferred from storage, ensuring that vials remained at cryogenic temperatures until thawing process ensued. Cells were thawed by placing the vial in a 37° C. water bath and gently shaking the vials for 2 minutes. After thawing was completed, vial was sprayed with 70% ethanol and transferred to a biosafety cabinet. Wide-bore pipette tip were used to transfer hepatocytes into 50 mL conical tube containing thawing medium. The 50 mL conical tube were placed into a centrifuge and spun at 100 g for 10 minutes. Upon completion of spin, thawing medium was aspirated and resuspended hepatocytes in enough incubation medium to yield ˜1.5×10^6 cells/mL. Using an AO/PI Staining, cells were counted and the viable cell density was determined. Cells with poor viability (<75% viability) were determined to be not acceptable for use. Cells were diluted with incubation medium to a working cell density of 0.5×10^6 viable cells/mL.
Procedure for Stability Determination: 198 μL of hepatocytes were pipetted into each wells of a 96-well non-coated plate. The plate was placed in the incubator to allow the hepatocytes to warm for 10 minutes. 2 μL of the 100 μM test compound or positive control solutions were pipetted into respective wells of the 96-well non-coated plate to start the reaction. The plate was returned to the incubator for the designed time points. Well contents was transferred in 25 μL aliquots at time points of 0, 15, 30, 60, 90 and 120 minutes. The aliquots were then mixed with 6 volumes (150 μL) of acetonitrile containing internal standard, IS (100 nM alprazolam, 200 nM caffeine and 100 nM tolbutamide) to terminate the reaction. The mixture was vortex for 5 minutes. Samples were centrifuged for 45 minutes at 3,220 g. An aliquot of 100 μL of the supernatant was diluted by 100 μL ultra-pure water, and the mixture was used for LC/MS/MS analysis. All incubations were performed in duplicate.
Data Analysis: All calculations were carried out using Microsoft Excel. Peak areas were determined from extracted ion chromatograms. In vitro half-life (t1/2) of parent compound was determined by regression analysis of the percent parent disappearance vs. time curve.
The in vitro half-life (in vitro t1/2) was determined from the slope value:
Conversion of the in vitro t1/2 (in min) into the in vitro intrinsic clearance (in vitro CLint, in μL/min/1×10^6 cells) was done using the following equation (mean of duplicate determinations):
V=incubation volume(0.2 mL);
N=number of hepatocytes per well(0.1×10^6 cells).
“+++” indicates a CLint value less than 20 mL/min/Kg, “++” indicates a CLint between 20 and 50 mL/min/Kg, and “+” indicates an CLint above 50 mL/min/Kg.

For the compound `O=c1c2cc(-c3ccc(Cl)cc3)nc(-c3cccnc3)c2ncn1[C@@H]1COC[C@@H]1O` (stereo in doubt) [Compound 71], the CLint scaled at 1 μM was less than 20 mL/min/kg.
In the case of `C[C@@H](CO)n1cnc2c(-c3cccnc3)nc(-c3ccc(C(F)(F)F)cc3)cc2c1=O` [Compound 23] it was less than 20 mL/min/kg; in that of `C[C@@H](CO)n1cnc2c(-c3cnn(C)c3)nc(-c3ccc(OC(F)(F)F)cc3)cc2c1=O` [Compound 25], less than 20 mL/min/kg.
Turning to `C[C@H](n1cnc2c(-c3cccnc3)nc(-c3cccnc3)cc2c1=O)C(C)(C)O` [Compound 34], the CLint scaled at 1 μM was less than 20 mL/min/kg.
In the case of `C[C@@H](CO)n1cnc2c(-c3cccnc3)nc(-c3ccc(OC(F)(F)F)nc3)cc2c1=O` [Compound 50] it was 20 to 50 mL/min/kg.
In the case of `CC(C)(O)Cn1cnc2c(-c3cn[nH]c3)nc(-c3ccc(C(F)(F)F)nc3)cc2c1=O` [Compound 51] it was less than 20 mL/min/kg; in that of `CC(C)(O)Cn1cnc2c(-c3cnsc3)nc(-c3ccc(C(F)(F)F)nc3)cc2c1=O` [Compound 54], less than 20 mL/min/kg.
In the case of `C[C@@H](CO)n1cnc2c(-c3cnsc3)nc(-c3ccc(C(F)(F)F)nc3)cc2c1=O` [Compound 55] it was 20 to 50 mL/min/kg.
Consider `O=c1c2cc(-c3ccc(C(F)(F)F)nc3)nc(-c3cccnc3)c2ncn1C[C@H](O)C(F)(F)F` [Compound 57], for which the CLint scaled at 1 μM is less than 20 mL/min/kg.
In the case of `C[C@@H](CO)n1cnc2c(-c3cnsc3)nc(-c3ccc(Cl)cc3)cc2c1=O` [Compound 58] it was less than 20 mL/min/kg.
`C[C@@H](CO)n1cnc2c(-c3cccnc3)nc(-c3cnc(C4CC4)s3)cc2c1=O` [Compound 66]: the CLint scaled at 1 μM fell in the range of 20 to 50 mL/min/kg.
In the case of `CC(C)(O)Cn1cnc2c(-c3cccnc3)nc(-c3ccc(C4CC4)nc3)cc2c1=O` [Compound 81] it was less than 20 mL/min/kg; in that of `Cn1cc(-c2nc(-c3ccc(C4CC4)nc3)cc3c(=O)n(CC(C)(C)O)cnc23)cn1` [Compound 82], less than 20 mL/min/kg.
In the case of `C[C@@H](CO)n1cnc2c(-c3cnn(C)c3)nc(-c3ccc(C4CC4)nc3)cc2c1=O` [Compound 83] it was less than 20 mL/min/kg; in that of `C[C@@H](CO)n1cnc2c(-c3cccnc3)nc(-c3cnc(C(F)(F)F)s3)cc2c1=O` [Compound 85], less than 20 mL/min/kg; in that of `C[C@@H](CO)n1cnc2c(-c3cccnc3)nc(-c3cnc(C(F)(F)F)nc3)cc2c1=O` [Compound 86], less than 20 mL/min/kg.
For `Cn1cc(-c2nc(-c3ccc(C(F)(F)F)nc3)cc3c(=O)n([C@H]4COC[C@H]4O)cnc23)cn1` [Compound 88], the CLint scaled at 1 μM is less than 20 mL/min/kg.
In the case of `Cc1ncc(-c2cc3c(=O)n([C@@H](C)CO)cnc3c(-c3cccnc3)n2)s1` [Compound 89] it was less than 20 mL/min/kg.
In the case of `Cn1cc(-c2nc(-c3ccc(Cl)cc3)cc3c(=O)n([C@H]4COC[C@H]4O)cnc23)cn1` [Compound 92] it was less than 20 mL/min/kg; in that of `C[C@@H](CO)n1cnc2c(-c3cnn(C)c3)nc(-c3cnc(C(F)(F)F)nc3)cc2c1=O` [Compound 95], less than 20 mL/min/kg; in that of `Cn1cc(-c2nc(-c3cnc(C(F)(F)F)nc3)cc3c(=O)n(CC(C)(C)O)cnc23)cn1` [Compound 99], less than 20 mL/min/kg.
On to `CC(C)(O)Cn1cnc2c(-c3cnsc3)nc(-c3ccc(C(F)(F)F)cn3)cc2c1=O` [Compound 101, 3-(2-hydroxy-2-methylpropyl)-8-(isothiazol-4-yl)-6-(5-(trifluoromethyl)pyridin-2-yl)pyrido[3,4-d]pyrimidin-4(3H)-one], for which the CLint scaled at 1 μM is less than 20 mL/min/kg.
In the case of `C[C@@H](CO)n1cnc2c(-c3cnsc3)nc(-c3ccc(C(F)(F)F)cn3)cc2c1=O` [Compound 102, (S)-3-(1-hydroxypropan-2-y1)-8-(isothiazol-4-yl)-6-(5-(trifluoromethyl)pyridin-2-yl)pyrido[3,4-d]pyrimidin-4(3H)-one] it was less than 20 mL/min/kg; in that of `O=c1c2cc(-c3ccc(C(F)(F)F)cn3)nc(-c3cccnc3)c2ncn1C[C@H](O)C(F)(F)F` [Compound 104, (S)-8-(pyridin-3-yl)-3-(3,3,3-trifluoro-2-hydroxypropyl)-6-(5-(trifluoromethyl)pyridin-2-yl)pyrido[3,4-d]pyrimidin-4(3H)-one], less than 20 mL/min/kg.
In the case of `C[C@H](O)Cn1cnc2c(-c3cnn(C)c3)nc(-c3ccc(C(F)(F)F)nc3)cc2c1=O` [Compound 109, (S)-3-(2-hydroxypropyl)-8-(1-methyl-1H-pyrazol-4-yl)-6-(6-(trifluoromethyl)pyridin-3-yl)pyrido[3,4-d]pyrimidin-4(3H)-one] it was less than 20 mL/min/kg; in that of `Cn1cc(-c2nc(-c3ccc(C(F)(F)F)nc3)cc3c(=O)n(C[C@@H](O)C(F)(F)F)cnc23)cn1` [Compound 110, (R)-8-(1-methyl-1H-pyrazol-4-yl)-3-(3,3,3-trifluoro-2-hydroxypropyl)-6-(6-(trifluoromethyl)pyridin-3-yl)pyrido[3,4-d]pyrimidin-4(3H)-one], less than 20 mL/min/kg; in that of `Cn1cc(-c2nc(-c3ccc(C(F)(F)F)nc3)cc3c(=O)n(C[C@H](O)C(F)(F)F)cnc23)cn1` [Compound 111, (S)-8-(1-methyl-1H-pyrazol-4-yl)-3-(3,3,3-trifluoro-2-hydroxypropyl)-6-(6-(trifluoromethyl)pyridin-3-y1)pyrido[3,4-d]pyrimidin-4(3H)-one], less than 20 mL/min/kg.
In the case of `C[C@@H](O)Cn1cnc2c(-c3cccnc3)nc(-c3ccc(C(F)(F)F)nc3)cc2c1=O` [Compound 112, (R)-3-(2-hydroxypropyl)-8-(pyridin-3-yl)-6-(6-(trifluoromethyl)pyridin-3-yl)pyrido[3,4-d]pyrimidin-4(3H)-one] it was less than 20 mL/min/kg.
As for `Cn1cc(-c2nc(-c3ccc(C(F)(F)F)nc3)cc3c(=O)n([C@H]4COC[C@@H]4O)cnc23)cn1` [Compound 114, 3-((3S,4R)-4-hydroxytetrahydrofuran-3-yl)-8-(1-methyl-1H-pyrazol-4-yl)-6-(6-(trifluoromethyl)pyridin-3-yl)pyrido[3,4-d]pyrimidin-4(3H)-one], the CLint scaled at 1 μM is less than 20 mL/min/kg.
In the case of `Cn1cc(-c2nc(-c3ccc(C(F)(F)F)nc3)cc3c(=O)n([C@@H]4COC[C@H]4O)cnc23)cn1` [Compound 115, 3-((3R,4S)-4-hydroxytetrahydrofuran-3-y1)-8-(1-methyl-1H-pyrazol-4-y1)-6-(6-(trifluoromethyl)pyridin-3-yl)pyrido[3,4-d]pyrimidin-4(3H)-one] it was less than 20 mL/min/kg; in that of `Cn1cc(-c2nc(-c3ccc(Cl)cc3)cc3c(=O)n([C@H]4COC[C@@H]4O)cnc23)cn1` [Compound 116], less than 20 mL/min/kg.
In the case of `O=c1c2cc(-c3ccc(C(F)(F)F)nc3)nc(-c3cccnc3)c2ncn1[C@H]1COC[C@@H]1O` [Compound 117] it was less than 20 mL/min/kg.
In the case of `O=c1c2cc(-c3ccc(C4CC4)nc3)nc(-c3cccnc3)c2ncn1C[C@H](O)C(F)(F)F` [Compound 120, (S)-6-(6-cyclopropylpyridin-3-yl)-8-(pyridin-3-yl)-3-(3,3,3-trifluoro-2-hydroxypropyl)pyrido[3,4-d]pyrimidin-4(3H)-one] it was less than 20 mL/min/kg.
`O=c1c2cc(-c3ccc(C(F)(F)F)nc3)nc(-c3cccnc3)c2ncn1C[C@@H](O)C(F)(F)F` [Compound 122, (R)-8-(pyridin-3-yl)-3-(3,3,3-trifluoro-2-hydroxypropyl)-6-(6-(trifluoromethyl)pyridin-3-yl)pyrido[3,4-d]pyrimidin-4(3H)-one]: the CLint scaled at 1 μM is less than 20 mL/min/kg.
In the case of `O=c1c2cc(-c3ccc(OC(F)(F)F)cc3)nc(-c3cccnc3)c2ncn1C[C@H](O)C(F)(F)F` [Compound 124, (S)-8-(pyridin-3-yl)-3-(3,3,3-trifluoro-2-hydroxypropyl)-6-(4-(trifluoromethoxy)phenyl)pyrido[3,4-d]pyrimidin-4(3H)-one] it was less than 20 mL/min/kg; in that of `O=c1c2cc(-c3ccc(C(F)(F)F)nc3)nc(-c3cccnc3)c2ncn1[C@H]1COC[C@H]1O` [Compound 126, 3-((3S,4S)-4-hydroxytetrahydrofuran-3-yl)-8-(pyridin-3-yl)-6-(6-(trifluoromethyl)pyridin-3-yl)pyrido[3,4-d]pyrimidin-4(3H)-one], less than 20 mL/min/kg.
